What was measured:
[1] = test system: johnsongrass (Sorghum halepense); assay: Test C preemergence; assay type: in vivo; settings: Sorghum halepense, pre-emergence, 336 h, preemergence, scale 0 to 100, read-out: Plant response rating, Johnsongrass
How it was run: (§1)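 After preemergence treatment of seeds in loam-sand soil or foliar treatment at the 1- to 4-leaf stage of plants in peat/vermiculite medium, pots were kept 13-15 days in the greenhouse. Each was then scored visually, 0 meaning no effect and 100 complete control.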

[2] = test system: oilseed rape (Brassica napus); assay: Test C preemergence; assay type: in vivo; settings: Brassica napus, pre-emergence, preemergence, scale 0 to 100, read-out: Plant response rating, Oilseed Rape
How it was run: as §1

soybean (Glycine max) = assay: Test C preemergence; assay type: in vivo; settings: Glycine max, pre-emergence, preemergence, scale 0 to 100, read-out: Plant response rating, Soybean
How it was run: as §1

[3] = test system: pigweed (Amaranthus retroflexus); assay: Test C preemergence; assay type: in vivo; settings: Amaranthus retroflexus, pre-emergence, 336 h, preemergence, scale 0 to 100, read-out: Plant response rating, Pigweed
How it was run: as §1

[4] = test system: morningglory (Ipomoea coccinea); assay: Test C preemergence; assay type: in vivo; settings: Ipomoea, pre-emergence, 336 h, preemergence, scale 0 to 100, read-out: Plant response rating, Morningglory
How it was run: as §1

[5] = test system: yellow nutsedge (Cyperus esculentus); assay: Test C preemergence; assay type: in vivo; settings: Cyperus, pre-emergence, 336 h, preemergence, scale 0 to 100, read-out: Plant response rating, Nutsedge, Yellow
How it was run: as §1

[6] = test system: winter wheat (Triticum aestivum); assay: Test C preemergence; assay type: in vivo; settings: Triticum aestivum, pre-emergence, 336 h, preemergence, scale 0 to 100, read-out: Plant response rating, Wheat
How it was run: as §1

[7] = test system: velvetleaf (Abutilon theophrasti); assay: Test C preemergence; assay type: in vivo; settings: Abutilon theophrasti, pre-emergence, preemergence, scale 0 to 100, read-out: Plant response rating, Velvetleaf
How it was run: as §1

[8] = test system: galium (catchweed bedstraw, Galium aparine); assay: Test C preemergence; assay type: in vivo; settings: Galium, pre-emergence, 336 h, preemergence, scale 0 to 100, read-out: Plant response rating, Galium
How it was run: as §1

[9] = test system: blackgrass (Alopecurus myosuroides); assay: Test C preemergence; assay type: in vivo; settings: Alopecurus myosuroides, pre-emergence, 336 h, preemergence, scale 0 to 100, read-out: Plant response rating, Blackgrass
How it was run: as §1

[10] = test system: giant foxtail (Setaria faberii); assay: Test C preemergence; assay type: in vivo; settings: Setaria faberi, pre-emergence, 336 h, preemergence, scale 0 to 100, read-out: Plant response rating, Foxtail, Giant
How it was run: as §1

[11] = test system: ragweed (common ragweed, Ambrosia elatior); assay: Test C preemergence; assay type: in vivo; settings: Ambrosia artemisiifolia, pre-emergence, 336 h, preemergence, scale 0 to 100, read-out: Plant response rating, Ragweed
How it was run: as §1

[12] = test system: barnyardgrass (Echinochloa crus-galli); assay: Test C preemergence; assay type: in vivo; settings: Echinochloa crus-galli, pre-emergence, preemergence, scale 0 to 100, read-out: Plant response rating, Barnyardgrass
How it was run: as §1

corn (Zea mays) = assay: Test C preemergence; assay type: in vivo; settings: Zea mays, pre-emergence, 336 h, preemergence, scale 0 to 100
How it was run: as §1

[13] = test system: large (Lg) crabgrass (Digitaria sanguinalis); assay: Test C preemergence; assay type: in vivo; settings: Digitaria sanguinalis, pre-emergence, 336 h, preemergence, scale 0 to 100, read-out: Plant response rating, Crabgrass, Large
How it was run: as §1

[14] = test system: lambsquarters (Chenopodium album); assay: Test C preemergence; assay type: in vivo; settings: Chenopodium album, pre-emergence, 336 h, preemergence, scale 0 to 100, read-out: Plant response rating, Lambsquarters
How it was run: as §1

[15] = test system: morningglory (Ipomoea coccinea); assay: Test C postemergence; assay type: in vivo; settings: Ipomoea, post-emergence, 336 h, Postemergence, scale 0 to 100, read-out: Plant response rating, Morningglory
How it was run: as §1

[16] = test system: winter wheat (Triticum aestivum); assay: Test C postemergence; assay type: in vivo; settings: Triticum aestivum, post-emergence, 336 h, Postemergence, scale 0 to 100, read-out: Plant response rating, Wheat
How it was run: as §1

[17] = test system: velvetleaf (Abutilon theophrasti); assay: Test C postemergence; assay type: in vivo; settings: Abutilon theophrasti, post-emergence, Postemergence, scale 0 to 100, read-out: Plant response rating, Velvetleaf
How it was run: as §1

[18] = test system: galium (catchweed bedstraw, Galium aparine); assay: Test C postemergence; assay type: in vivo; settings: Galium, post-emergence, 336 h, Postemergence, scale 0 to 100, read-out: Plant response rating, Galium
How it was run: as §1

[19] = test system: large (Lg) crabgrass (Digitaria sanguinalis); assay: Test C postemergence; assay type: in vivo; settings: Digitaria sanguinalis, post-emergence, 336 h, Postemergence, scale 0 to 100, read-out: Plant response rating, Crabgrass, Large
How it was run: as §1

kochia (Kochia scoparia) = assay: Test C postemergence; assay type: in vivo; settings: Bassia scoparia, post-emergence, Postemergence, scale 0 to 100, read-out: Plant response rating, Kochia
How it was run: as §1

Fc1cnc(Oc2c(F)cccc2Oc2ncc(Cl)cn2)nc1 [Compound 23]
10%: pest or weed control at 62 g/ha ([5]; 62 g ai/ha) | pest or weed control at 125 g/ha ([19]; 125 g ai/ha)
45%: pest or weed control at 31 g/ha ([4]; 31 g ai/ha)
141 to 145 °C: melting point
90%: pest or weed control at 125 g/ha ([1]; 125 g ai/ha) | plant injury at 125 g/ha (soybean (Glycine max); 125 g ai/ha) | plant injury at 250 g/ha ([6]; 250 g ai/ha) | pest or weed control at 250 g/ha ([17]; 250 g ai/ha) | pest or weed control at 62 g/ha ([18]; 62 g ai/ha) | pest or weed control at 250 g/ha (kochia (Kochia scoparia); 250 g ai/ha)
65%: pest or weed control at 31 g/ha ([9]; 31 g ai/ha)
30%: pest or weed control at 250 g/ha ([19]; 250 g ai/ha)
35%: Corn plant response rating (crop injury, 0 = no effect, 100 = complete kill) at 62 g/ha (corn (Zea mays); 62 g ai/ha)
50%: pest or weed control at 62 g/ha ([1]; 62 g ai/ha) | plant injury at 125 g/ha ([6]; 125 g ai/ha)
85%: pest or weed control at 62 g/ha ([4]; 62 g ai/ha) | pest or weed control at 62 g/ha ([9]; 62 g ai/ha) | pest or weed control at 31 g/ha ([11]; 31 g ai/ha) | pest or weed control at 125 g/ha ([15]; 125 g ai/ha)
70%: Corn plant response rating (crop injury, 0 = no effect, 100 = complete kill) at 125 g/ha (corn (Zea mays); 125 g ai/ha) | pest or weed control at 31 g/ha ([17]; 31 g ai/ha) | pest or weed control at 62 g/ha ([17]; 62 g ai/ha) | pest or weed control at 31 g/ha ([18]; 31 g ai/ha) | pest or weed control at 62 g/ha (kochia (Kochia scoparia); 62 g ai/ha)
80%: plant injury at 62 g/ha (soybean (Glycine max); 62 g ai/ha) | pest or weed control at 125 g/ha (kochia (Kochia scoparia); 125 g ai/ha)
5%: plant injury at 31 g/ha ([6]; 31 g ai/ha) | Corn plant response rating (crop injury, 0 = no effect, 100 = complete kill) at 31 g/ha (corn (Zea mays); 31 g ai/ha) | plant injury at 250 g/ha ([16]; 250 g ai/ha) | pest or weed control at 31 g/ha ([19]; 31 g ai/ha) | pest or weed control at 62 g/ha ([19]; 62 g ai/ha) | pest or weed control at 31 g/ha (kochia (Kochia scoparia); 31 g ai/ha)
95%: plant injury at 250 g/ha (soybean (Glycine max); 250 g ai/ha) | pest or weed control at 125 g/ha ([9]; 125 g ai/ha) | pest or weed control at 31 g/ha ([10]; 31 g ai/ha) | pest or weed control at 250 g/ha ([15]; 250 g ai/ha) | pest or weed control at 125 g/ha ([18]; 125 g ai/ha) | pest or weed control at 250 g/ha ([18]; 250 g ai/ha)
60%: plant injury at 31 g/ha (soybean (Glycine max); 31 g ai/ha) | pest or weed control at 125 g/ha ([5]; 125 g ai/ha) | pest or weed control at 31 g/ha ([15]; 31 g ai/ha)
40%: pest or weed control at 31 g/ha ([1]; 31 g ai/ha) | plant injury at 62 g/ha ([6]; 62 g ai/ha)
0%: pest or weed control at 31 g/ha ([5]; 31 g ai/ha) | plant injury at 31 g/ha ([16]; 31 g ai/ha) | plant injury at 62 g/ha ([16]; 62 g ai/ha) | plant injury at 125 g/ha ([16]; 125 g ai/ha)
98%: pest or weed control at 125 g/ha ([4]; 125 g ai/ha) | pest or weed control at 62 g/ha ([10]; 62 g ai/ha)
75%: pest or weed control at 31 g/ha ([12]; 31 g ai/ha) | pest or weed control at 62 g/ha ([15]; 62 g ai/ha) | pest or weed control at 125 g/ha ([17]; 125 g ai/ha)
100%: plant injury at 31 g/ha ([2]; 31 g ai/ha) | plant injury at 62 g/ha ([2]; 62 g ai/ha) | plant injury at 125 g/ha ([2]; 125 g ai/ha) | plant injury at 250 g/ha ([2]; 250 g ai/ha) | pest or weed control at 31 g/ha ([3]; 31 g ai/ha) | pest or weed control at 62 g/ha ([3]; 62 g ai/ha) | pest or weed control at 125 g/ha ([3]; 125 g ai/ha) | pest or weed control at 31 g/ha ([7]; 31 g ai/ha) | pest or weed control at 62 g/ha ([7]; 62 g ai/ha) | pest or weed control at 125 g/ha ([7]; 125 g ai/ha) | pest or weed control at 250 g/ha ([7]; 250 g ai/ha) | pest or weed control at 31 g/ha ([8]; 31 g ai/ha) | pest or weed control at 62 g/ha ([8]; 62 g ai/ha) | pest or weed control at 125 g/ha ([8]; 125 g ai/ha) | pest or weed control at 125 g/ha ([10]; 125 g ai/ha) | pest or weed control at 62 g/ha ([11]; 62 g ai/ha) | pest or weed control at 125 g/ha ([11]; 125 g ai/ha) | pest or weed control at 250 g/ha ([11]; 250 g ai/ha) | pest or weed control at 62 g/ha ([12]; 62 g ai/ha) | pest or weed control at 125 g/ha ([12]; 125 g ai/ha) | pest or weed control at 250 g/ha ([12]; 250 g ai/ha) | pest or weed control at 31 g/ha ([13]; 31 g ai/ha) | pest or weed control at 62 g/ha ([13]; 62 g ai/ha) | pest or weed control at 125 g/ha ([13]; 125 g ai/ha) | pest or weed control at 31 g/ha ([14]; 31 g ai/ha) | pest or weed control at 62 g/ha ([14]; 62 g ai/ha) | pest or weed control at 125 g/ha ([14]; 125 g ai/ha)
